Test [1] has as its system chs3∆ (chs3::KanMX in BY4741). As to the kind of experiment: MIC in compound library screening assay, chs3∆ yeast. The format is cell-based, S. cerevisiae. The protocol:
(§1) The compound library is a combination of synthetic compounds from Enamine (Kyiv, Ukraine) and Life Chemicals Inc. (Burlington, ON, Canada) and natural products from the Institute of Medicinal Biotechnology. We used WT, chs3∆, and fks1∆ yeast strains to screen new antifungal agents. The screening assays were performed in 96-well plates in a final volume of 200 μL. Fresh yeast cells (OD600 = 0.8) were diluted to 10^5 CFU/mL in YPD medium. We added 198 μL of diluted culture and 2 μL of compounds into each well, and the final concentration of compounds was 100 μg/mL with 1% DMSO. The yeast cells were incubated at 30 °C for 24 hours to assess the growth. For the compounds that inhibited the growth of all three yeast strains, they were serially diluted to determine the minimal inhibit concentration (MIC) with the same method. MIC endpoints were defined as the lowest concentration of drugs that cause a 90% decrease in growth compared to the drug-free control (MIC90).

A further test relates to budding yeast. Briefly: MIC of CFW in the presence of compounds, checkerboard assay. Format: cell-based, S. cerevisiae. The protocol:
(§2) Fresh cell cultures of WT S. cerevisiae and C. albicans ATCC10231 (OD600 = 0.8) were diluted to 10^4 CFU/mL in YPD medium. The in vitro synergistic and antagonistic effects of compounds were determined using checkerboard assay. MIC endpoints were defined as the lowest concentration of drugs, causing 80% decrease in viability compared to the drug-free control (MIC80). The calculation and interpretation of the fractional inhibitory concentration index (FICI) were carried out by referring to the document standards. FICI = (MIC of drug A in combination) / (MIC of drug A alone) + (MIC of drug B in combination) / (MIC of drug B alone). FIC ≤0.5 was considered as a synergistic effect, and >2 was considered as antagonism.

The subject of test [2] is chitin level in C. albicans. As to the kind of experiment: CFW staining of chitin, fluorescence microscopy. The format is cell-based, Candida albicans. The following applies: IMB-D10 12.5 μg/mL or IMB-F4 25 μg/mL, 5 hours. Here is the method:
(§3) WT S. cerevisiae and C. albicans ATCC10231 were grown to 10^5 CFU/mL in YPD medium and then treated with IMB-D10 (12.5 or 25 μg/mL), IMB-F4 (12.5 or 25 μg/mL), or 0.25% DMSO for 3 and 5 hours at 30 ℃. Cells were collected by centrifugation at 1500 g for 5 min and resuspended in PBS. Some cells were examined using 100 × / 1.25 oil immersion objective (DM2500, Leica) and analyzed by Leica las. Some cells were stained with 100 μg/mL Calcofluor White M2R (CFW, Sigma-Aldrich, St. Louis, MO, USA for 3 min and washed three times with water. Then, the cells were examined under the UV light for fluorescent signals.

The subject of another test is WT yeast cells. Briefly: Cell division morphology, light microscopy. Format: cell-based, S. cerevisiae. The following applies: treatment for 5 hours at 30 °C (IMB-D10 25 μg/mL). Here is the method:
as §3

The subject of another test is Mycobacterium smegmatis. As to the kind of experiment: Growth inhibition of bacteria. The following applies: at 100 μg/mL. The format is cell-based.
Test [3] has as its system WT S. cerevisiae strain BY4741. As to the kind of experiment: MIC in compound library screening assay, WT yeast. Format: cell-based. The following applies: WT BY4741, YPD, 30 °C, 24 hours, MIC90. The protocol:
as §1

Test [4] concerns Escherichia coli ATCC 25922. Briefly: Growth inhibition of bacteria. Format: cell-based. The following applies: Escherichia coli ATCC 25922, at 100 μg/mL.
Test [5] has as its system chitin content in WT yeast cells. As to the kind of experiment: Chitin content assay (Morgan–Elson method). The format is cell-based, S. cerevisiae. The following applies: 16 hours at 30 °C. The protocol:
The chitin content was assessed by measuring the level of D-glucosamine according to the method described by Morgan–Elson. WT yeast cells were grown to 10^5 CFU/ml in YPD medium and then treated with IMB-D10 (12.5 μg/mL), IMB-F4 (25 μg/mL), or DMSO (0.25%) for 16 hours at 30 °C. Cells were collected by centrifugation at 1500 g for 5 min and then freeze-dried after being washed twice with deionized water. Five-milligram sample was weighted and hydrolyzed by H2SO4 at 100 °C for 4 hours. The hydrolysates were centrifuged at 12,000 rpm for 5 min. We removed 100 μL supernatant to another tube and adjusted pH value to 3 with 2 M KOH; then the volume was set to 1 mL with water. One milliliter acetylacetone (7% acetylacetone in 1 M Na2CO3) was added into the tube and incubated for 25 min at 100 °C. The 1.5 mL Ehrlich^’s reagent and 1.5 mL absolute ethyl alcohol were added into the tube for further incubation for 1 hour at 60 °C. The OD520 was determined with BioMet 3S UV-Visible Spectrophotometer (Thermo Scientific^TM, Waltham, MA, USA). N-acetyl-D-glucosamine was used to establish a standard curve for the quantification of chitin levels. All reactions were performed in triplicate.

In a further test the test system is chitin in WT yeast cells. As to the kind of experiment: CFW staining of chitin, fluorescence microscopy. Particulars: 12.5 or 25 μg/mL, 3 or 5 hours, vs DMSO control. Format: cell-based, S. cerevisiae. The protocol: as §3
In test [6] the test system is fks1∆ (fks1::KanMX in BY4741). Briefly: MIC in compound library screening assay, fks1∆ yeast. The format is cell-based, S. cerevisiae. Here is the method:
as §1

The next test relates to C. albicans. Briefly: MIC of CFW in the presence of compounds, checkerboard assay. Format: cell-based, Candida albicans. The protocol:
as §2

The subject of another test is C. albicans ATCC10231. As to the kind of experiment: Growth inhibition, broth microdilution MIC. Format: cell-based, Candida albicans. The protocol: (§4) The experiments were carried out using a broth microdilution protocol modified from the Clinical and Laboratory Standards Institute M-27A methods. WT S. cerevisiae and C. albicans were grown to mid-log phase in YPD medium. The cells were collected by centrifugation at 1500 g for 5 min and diluted with RPMI 1640 medium to the density of 1 × 10^4 CFU/mL. Then, the samples with various concentrations of compounds were dispensed at 0.2 mL/well in sterile 96-well microplates. The final concentrations of compounds ranged from 3.125 to 100 μg/mL with serial two-fold dilution. After incubation at 30 °C (S. cerevisiae) or 35 °C (C. albicans) for 24 hours, the minimal inhibitory concentration (MIC) was determined by measuring the optical density of the wells with cell cultures. The antifungal agent caspofungin was used as a positive control. All tests were performed in triplicate.
On the technique in general: Dilution methods test growth across graded concentrations, often in twofold steps.

Test [7] relates to budding yeast S. cerevisiae. Briefly: Growth inhibition, broth microdilution MIC. Format: cell-based. The protocol: as §4

The MIC is the smallest concentration in the dilution series that meets the test's criterion for growth inhibition.

Where two headings read alike, the source gives them in different places. A value given as a limit tells only on which side of the number the result lay.

`COc1cc(OC)cc(C(=O)N(CCn2ccnc2)c2nc3ccc(OC)cc3s2)c1` [IMB-F4, N-(2-(1H-imidazol-1-yl)ethyl)-3,5-dimethoxy-N-(6-methoxybenzo[d]thiazol-2-yl)benzamide]: the minimum inhibitory concentration (MIC) in test [1] (Saccharomyces cerevisiae, 24 h, read-out: MIC, chs3∆, chs3∆ mutant, YPD, 30 °C, 24 hours, MIC90) was greater than 100 µg/mL; in test [3] (Saccharomyces cerevisiae, read-out: MIC, WT) it was greater than 100 µg/mL; in test [6] (Saccharomyces cerevisiae, 24 h, read-out: MIC, fks1∆) it was 50 µg/mL; in the test on C. albicans ATCC10231 (Candida albicans, read-out: MIC), greater than 100 µg/mL. Also, the “resistance to CFW” value in the test on budding yeast (yeast cells treated with 25 and 50 μg/mL IMB-F4) is given as “increased resistance to CFW”. The “chitin level by CFW staining” value in [2] is listed as “decreased chitin level”. Moreover, the “cell division / cell separation morphology” value in the test on WT yeast cells is “normal cell separation”. Also, the growth inhibition entry (in the test on Mycobacterium smegmatis; in test [4]) was “did not inhibit the growth” in each case. The “relative chitin content compared to cells treated with DMSO” value was 46.09 ± 8.01% in test [5] (12.5 μg/mL) and 27 ± 5.33% in test [5] (25 μg/mL). Further, the “CFW fluorescent signal around the cell wall and at the primary septum” value with chitin in WT yeast cells is “weaker fluorescent signal”. Also, in the test with C. albicans (25 and 50 μg/mL IMB-F4), the “resistance of C. albicans to CFW” value is “increased the resistance”. The cell growth inhibition entry in test [7] (S. cerevisiae, at 100 μg/mL) is given as “did not inhibit cell growth”.

For the molecule “N-(2-(diethylamino) ethyl)-N-(7-hydroxy-4-methoxybenzo[d]thiazol -2-yl)-2-oxo-2H-chromene-3-carboxamide [IMB-D10]”, the “MIC, chs3∆” value in [1] (chs3∆ mutant, YPD, 30 °C, 24 hours, MIC90) was 100 µg/mL. For the same molecule, the “increase of the MIC of CFW” value in the test on budding yeast (budding yeast, presence of 12.5 μg/mL IMB-D10) was “eight-fold increase”. The “chitin level by CFW staining” value in [2] is on record as “decreased chitin level”. The “cell division / cell separation morphology” value in the test with WT yeast cells is “some yeast cells failed to divide”. Also, the growth inhibition entry (in the test with Mycobacterium smegmatis; in [4]) was “did not inhibit the growth” throughout. Moreover, the “MIC, WT” value in test [3] came out at 50 µg/mL. Moreover, the “relative chitin content compared to cells treated with DMSO” value in [5] (12.5 μg/mL) was “did not reduce the chitin level significantly”; in test [5] (25 μg/mL), 47.61 ± 6.79%. In the test with chitin in WT yeast cells, the “CFW fluorescent signal around the cell wall and at the primary septum” value is “weaker fluorescent signal”. Moreover, in test [6] (fks1∆ mutant, YPD, 30 °C, 24 hours, MIC90), the “MIC, fks1∆” value was 25 µg/mL. Also, the “MIC of CFW in the presence of IMB-D10” value in the test with C. albicans (C. albicans, IMB-D10 at 50 μg/mL) is 100 µg/mL. Also, the minimum inhibitory concentration (MIC) amounted to 100 µg/mL against C. albicans ATCC10231 and 50 µg/mL in [7] (budding yeast S. cerevisiae).

(Values after publication PMC6749524, “Identification of New Antifungal Agents Targeting Chitin Synthesis by a Chemical-Genetic Method” (Molecules, 2019).)
